Source: ChEMBL document CHEMBL1201862, “PubChem BioAssay data set” (2004)
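Tested at 5 concentrations; 48 h exposure; 96-well plates; endpoints linearly interpolated, else capped at highest concentration. At the GI50, growth is halved.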 Activity calls are given as the source filed them. Cut-off read from the data, not from the text of the source: active = GI50 up to about 1.1 µM and inactive = higher.

Columns and labels:
Assay in all cases: DTP human tumour cell line panel, 48 h
A498 = test system: A498
MDA-MB-435 = test system: MDA-MB-435
BT-549 = test system: BT-549
SF-539 = test system: SF-539
SK-MEL-28 = test system: SK-MEL-28
MDA-MB-231 = test system: MDA-MB-231
LOX IMVI = test system: LOX IMVI
Hs-578T = test system: Hs-578T
MOLT-4 = test system: MOLT-4
HL-60 = test system: HL-60
NCI-H23 = test system: NCI-H23
CAKI-1 = test system: CAKI-1
OVCAR-4 = test system: OVCAR-4
OVCAR-8 = test system: OVCAR-8
HOP-92 = test system: HOP-92
SF-268 = test system: SF-268
HT-29 = test system: HT-29
T47D = test system: T47D
HCT-116 = test system: HCT-116
NCI-H226 = test system: NCI-H226
RXF 393 = test system: RXF 393
NCI-H460 = test system: NCI-H460
CCRF-CEM = test system: CCRF-CEM
EKVX = test system: EKVX
ACHN = test system: ACHN
HOP-62 = test system: HOP-62
SW-620 = test system: SW-620
SR = test system: SR
HCT-15 = test system: HCT-15
DU-145 = test system: DU-145
U-251 = test system: U-251
IGROV-1 = test system: IGROV-1
NCI/ADR-RES = test system: NCI/ADR-RES
MDA-N = test system: MDA-N
786-0 = test system: 786-0
RPMI-8226 = test system: RPMI-8226
KM12 = test system: KM12
OVCAR-3 = test system: OVCAR-3
SK-MEL-5 = test system: SK-MEL-5
UACC-257 = test system: UACC-257
SN12C = test system: SN12C
SF-295 = test system: SF-295
K562 = test system: K562
HCC 2998 = test system: HCC 2998
A549 = test system: A549
UO-31 = test system: UO-31
Malme-3M = test system: Malme-3M
NCI-H522 = test system: NCI-H522
UACC-62 = test system: UACC-62
TK-10 = test system: TK-10
MCF7 = test system: MCF7
PC-3 = test system: PC-3
COLO 205 = test system: COLO 205
SNB-75 = test system: SNB-75
SK-OV-3 = test system: SK-OV-3
SK-MEL-2 = test system: SK-MEL-2
M14 = test system: M14
SNB-19 = test system: SNB-19
OVCAR-5 = test system: OVCAR-5

COC(=O)C1(Cc2ccc3c(c2)CCC3)Cc2ccc3c(c2C1O)CCC3 (stereo not drawn)
GI50 (A498): 11.7 µM (inactive)
GI50 (MDA-MB-435): 13 µM (inactive)
GI50 (BT-549): 14.9 µM (inactive)
GI50 (SF-539): 21.2 µM (inactive)
GI50 (SK-MEL-28): 14.7 µM (inactive)
GI50 (MDA-MB-231): 12.7 µM (inactive)
GI50 (LOX IMVI): 12.6 µM (inactive)
GI50 (Hs-578T): 17.3 µM (inactive)
GI50 (MOLT-4): > 100 µM (inactive)
GI50 (HL-60): 23.1 µM (inactive)
GI50 (NCI-H23): > 10 µM (inactive)
GI50 (CAKI-1): 14.2 µM (inactive)
GI50 (OVCAR-4): 5.79 µM (inactive)
GI50 (OVCAR-8): 17.3 µM (inactive)
GI50 (HOP-92): 10.1 µM (inactive)
GI50 (SF-268): 21 µM (inactive)
GI50 (HT-29): 15.2 µM (inactive)
GI50 (T47D): 8.81 µM (inactive)
GI50 (HCT-116): 11.8 µM (inactive)
GI50 (NCI-H226): 18.5 µM (inactive)
GI50 (RXF 393): 14.5 µM (inactive)
GI50 (NCI-H460): 21 µM (inactive)
GI50 (CCRF-CEM): > 100 µM (inactive)
GI50 (EKVX): 8.89 µM (inactive)
GI50 (ACHN): 13 µM (inactive)
GI50 (HOP-62): 14.7 µM (inactive)
GI50 (SW-620): 14.5 µM (inactive)
GI50 (SR): 12 µM (inactive)
GI50 (HCT-15): > 10 µM
GI50 (DU-145): 11.8 µM (inactive)
GI50 (U-251): 15.8 µM (inactive)
GI50 (IGROV-1): > 10 µM (inactive)
GI50 (NCI/ADR-RES): 12.6 µM (inactive)
GI50 (MDA-N): 15.4 µM (inactive)
GI50 (786-0): 14.7 µM (inactive)
GI50 (RPMI-8226): 17 µM (inactive)
GI50 (KM12): 14.8 µM (inactive)
GI50 (OVCAR-3): 13.8 µM (inactive)
GI50 (SK-MEL-5): 10.2 µM (inactive)
GI50 (UACC-257): 10.7 µM (inactive)
GI50 (SN12C): 15 µM (inactive)
GI50 (SF-295): 17.5 µM (inactive)
GI50 (K562): > 100 µM (inactive)
GI50 (HCC 2998): 17.1 µM (inactive)
GI50 (A549): 14.1 µM (inactive)
GI50 (UO-31): 10.7 µM (inactive)
GI50 (Malme-3M): 12.2 µM (inactive)
GI50 (NCI-H522): 10.9 µM (inactive)
GI50 (UACC-62): 15.5 µM (inactive)
GI50 (TK-10): 17.3 µM (inactive)
GI50 (MCF7): 12.9 µM (inactive)
GI50 (PC-3): 15.1 µM (inactive)
GI50 (COLO 205): 12.9 µM (inactive)
GI50 (SNB-75): 32.2 µM (inactive)
GI50 (SK-OV-3): 18.5 µM (inactive)

COC1Cc2c(C)c(OC(C)=O)c3cccnc3c2O1 (stereo not drawn)
GI50 (A498): > 100 µM (inactive)
GI50 (MDA-MB-435): 17.6 µM (inactive)
GI50 (BT-549): 19.7 µM (inactive)
GI50 (SF-539): 48.2 µM (inactive)
GI50 (SK-MEL-28): 24.7 µM (inactive)
GI50 (MDA-MB-231): > 100 µM (inactive)
GI50 (Hs-578T): 30.3 µM (inactive)
GI50 (MOLT-4): 13.8 µM (inactive)
GI50 (HL-60): 6.79 µM (inactive)
GI50 (NCI-H23): 20.6 µM (inactive)
GI50 (CAKI-1): > 100 µM (inactive)
GI50 (OVCAR-4): 16 µM (inactive)
GI50 (OVCAR-8): 15.1 µM (inactive)
GI50 (HOP-92): 18.6 µM (inactive)
GI50 (SF-268): 16 µM (inactive)
GI50 (HT-29): 43.8 µM (inactive)
GI50 (T47D): 24.1 µM (inactive)
GI50 (HCT-116): 34.9 µM (inactive)
GI50 (NCI-H226): 39 µM (inactive)
GI50 (RXF 393): 14.9 µM (inactive)
GI50 (SK-MEL-2): 13.9 µM (inactive)
GI50 (NCI-H460): 25.4 µM (inactive)
GI50 (CCRF-CEM): 10.7 µM (inactive)
GI50 (EKVX): 15.4 µM (inactive)
GI50 (ACHN): 7.11 µM (inactive)
GI50 (HOP-62): 25.1 µM (inactive)
GI50 (SW-620): 13.5 µM (inactive)
GI50 (SR): 15.6 µM (inactive)
GI50 (HCT-15): 10.4 µM
GI50 (DU-145): 17.3 µM (inactive)
GI50 (U-251): 37.2 µM (inactive)
GI50 (IGROV-1): 13.3 µM (inactive)
GI50 (NCI/ADR-RES): 17.6 µM (inactive)
GI50 (M14): 14.5 µM (inactive)
GI50 (MDA-N): 20.8 µM (inactive)
GI50 (SNB-19): > 100 µM (inactive)
GI50 (786-0): 18.2 µM (inactive)
GI50 (RPMI-8226): 28.6 µM (inactive)
GI50 (KM12): 36.6 µM (inactive)
GI50 (OVCAR-3): 14.5 µM (inactive)
GI50 (SK-MEL-5): 15.3 µM (inactive)
GI50 (UACC-257): 16 µM (inactive)
GI50 (SN12C): 18.5 µM (inactive)
GI50 (SF-295): 32.4 µM (inactive)
GI50 (K562): 22.2 µM (inactive)
GI50 (HCC 2998): > 100 µM (inactive)
GI50 (A549): 17.3 µM (inactive)
GI50 (UO-31): 13.9 µM (inactive)
GI50 (Malme-3M): 13.8 µM (inactive)
GI50 (NCI-H522): 2.75 µM (inactive)
GI50 (UACC-62): 14.7 µM (inactive)
GI50 (OVCAR-5): 18.2 µM (inactive)
GI50 (TK-10): > 100 µM (inactive)
GI50 (MCF7): 18.9 µM (inactive)
GI50 (PC-3): 36.7 µM (inactive)
GI50 (COLO 205): 91.8 µM (inactive)
GI50 (SNB-75): 17.4 µM (inactive)
GI50 (SK-OV-3): 26.9 µM (inactive)
